Results reported in patent publication US11731980B1, “Furo[3,4-b]quinolone compounds as antibacterial agents” (KING FAISAL UNIVERSITY, priority 2023, dated 2023).
In brackets after ≈: the same amount, converted by molar mass. Where two headings read alike, the source gives them in different places.

Key:
[1] = system: Enterococcus faecium ATCC 35667; test: In vitro antibacterial activity, CLSI M07-A10 dilution (MIC); assay type: cell-based; conditions: ATCC35667
[2] = system: Klebsiella pneumonia MTCC 618; test: as above; assay type: cell-based; conditions: Klebsiella pneumoniae, MTCC618
[3] = system: Escherichia coli MTCC 443; test: as above; assay type: cell-based; conditions: MTCC443
DNA gyrase from E. coli = target: T1, DNA gyrase from E. coli (Escherichia coli, UniProt P0AES4+P0AES6); test: Inhibitory activity on E. coli DNA gyrase (Inspiralis assay); assay type: biochemical
T1 construct: purchased Inspiralis
T1 sequence (P0AES4 whole entry, one chain of several): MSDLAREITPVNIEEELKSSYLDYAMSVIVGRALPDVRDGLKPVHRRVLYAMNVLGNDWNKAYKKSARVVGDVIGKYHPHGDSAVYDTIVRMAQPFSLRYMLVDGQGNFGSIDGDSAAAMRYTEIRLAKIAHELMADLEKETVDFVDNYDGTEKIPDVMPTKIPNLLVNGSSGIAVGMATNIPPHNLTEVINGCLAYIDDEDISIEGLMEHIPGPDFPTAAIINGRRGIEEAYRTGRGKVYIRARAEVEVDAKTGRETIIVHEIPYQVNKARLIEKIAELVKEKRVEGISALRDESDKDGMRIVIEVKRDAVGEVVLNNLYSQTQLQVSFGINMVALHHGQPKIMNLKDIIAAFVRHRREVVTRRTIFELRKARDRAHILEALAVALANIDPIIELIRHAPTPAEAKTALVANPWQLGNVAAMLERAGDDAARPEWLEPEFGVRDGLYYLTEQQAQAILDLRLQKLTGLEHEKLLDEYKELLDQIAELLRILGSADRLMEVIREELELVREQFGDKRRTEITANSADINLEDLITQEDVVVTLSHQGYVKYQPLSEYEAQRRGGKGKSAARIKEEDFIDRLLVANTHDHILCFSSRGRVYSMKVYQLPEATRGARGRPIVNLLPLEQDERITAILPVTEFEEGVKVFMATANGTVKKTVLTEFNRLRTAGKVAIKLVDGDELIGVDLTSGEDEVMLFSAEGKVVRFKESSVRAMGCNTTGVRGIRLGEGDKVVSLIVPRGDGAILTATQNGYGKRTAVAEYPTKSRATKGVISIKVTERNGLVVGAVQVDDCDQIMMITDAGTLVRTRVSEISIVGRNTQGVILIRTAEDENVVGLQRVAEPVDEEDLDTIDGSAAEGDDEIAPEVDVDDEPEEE
Procedure: Inhibitory potencies were investigated utilizing the Inspiralis assay on streptavidin-coated 96-well microtiter plates. First, the plates were rehydrated with buffer (20 mM Tris-HCl with pH 7.6, 0.01% w/v BSA, 0.05% v/v Tween 20, 137 mM NaCl) and the biotinylated oligonucleotide was then immobilized. After washing off the unbound oligonucleotide, the enzyme test was performed. The reaction volume of 30 μL in buffer (35 mM Tris×HCl with pH 7.5, 4 mM MgCl2, 24 mM KCl, 2 mM DTT, 1.8 mM spermidine, 1 mM ATP, 6.5% w/v glycerol, 0.1 mg/mL albumin) contained 1.5 U of DNA gyrase from E. coli, 0.75 μg of relaxed pNO1 plasmid, and 3 μL solution of the inhibitor in 10% DMSO and 0.008% Tween 20. Reaction solutions were incubated at 37° C. for 30 min. After that, the TF buffer (50 mM NaOAc with pH 5.0, 50 mM NaCl and 50 mM MgCl2) was added to terminate the enzymatic reaction. After additional incubation for 30 min at rt, during which biotinoligonucleotide-plasmid triplex was formed, the unbound plasmid was washed off using TF buffer and SybrGOLD in T10 buffer (10 mM Tris HCl with pH 8.0 and 1 mM EDTA) was added. The fluorescence was measured with a microplate reader (BioTek Synergy H4, excitation: 485 nm, emission: 535 nm). Initial screening was done at 100 or 10 μM concentration of inhibitors. […] GraphPad Prism software was used to calculate the IC50 values. […]

[4] = system: Staphylococcus epidermidis; test: In vitro antibacterial activity, CLSI M07-A10 dilution (MIC); assay type: cell-based
[5] = system: Staphylococcus aureus ATCC BAA-1556 (MERSA resistant); test: as above; assay type: cell-based; conditions: ATCCBAA1556
[6] = system: Mycobacterium tuberculosis H37Rv strain; test: Anti-tubercular alamar blue microplate assay (MIC); assay type: cell-based; conditions: 168 h, M. tuberculosis H37Rv, seven days at 37° C., read-out: anti-mycobacterial activity (MIC)
[7] = system: Bacillus subtilis MTCC 441; test: In vitro antibacterial activity, CLSI M07-A10 dilution (MIC); assay type: cell-based; conditions: MTCC441
[8] = system: Pseudomonas aeruginosa MTCC 741; test: as above; assay type: cell-based; conditions: MTCC741
[9] = system: Staphylococcus aureus ATCC 29213; test: as above; assay type: cell-based; conditions: ATCC29213
[10] = system: Enterococcus faecium ATCC 51559 (VRE resistant); test: as above; assay type: cell-based

| Compound | MIC ([1]; Enterococcus faecium ATCC 35667, read-out: MIC) [µg/mL] | MIC ([2]; Klebsiella pneumonia MTCC 618, read-out: MIC) [µg/mL] | MIC ([3]; Escherichia coli MTCC 443, read-out: MIC) [µg/mL] | IC50 (DNA gyrase from E. coli) [nM] | MIC ([4]; read-out: MIC) [µg/mL] | MIC ([5]; Staphylococcus aureus ATCC BAA-1556 (MERSA resistant), read-out: MIC) [µg/mL] | MIC [6] [µg/mL] | MIC ([7]; Bacillus subtilis MTCC 441, read-out: MIC) [µg/mL] | MIC ([8]; Pseudomonas aeruginosa MTCC 741, read-out: MIC) [µg/mL] | MIC ([9]; Staphylococcus aureus ATCC 29213, read-out: MIC) [µg/mL] | MIC ([10]; Enterococcus faecium ATCC 51559 (VRE resistant), read-out: MIC) [µg/mL] | MIC ([1]; Enterococcus faecium) [µg/mL] | MIC [2] [µg/mL] | MIC ([3]; Escherichia coli) [µg/mL] | MIC [4] [µg/mL] | MIC ([5]; Staphylococcus aureus) [µg/mL] | MIC ([7]; Bacillus subtilis) [µg/mL] | MIC ([8]; Pseudomonas aeruginosa) [µg/mL] | MIC ([9]; Staphylococcus aureus) [µg/mL] | MIC ([10]; Enterococcus faecium) [µg/mL] |
| --- | --- | --- | --- | --- | --- | --- | --- | --- | --- | --- | --- | --- | --- | --- | --- | --- | --- | --- | --- | --- |
| CCCCCN(C)Cc1cc(-c2c3c(nc4cc(NC(=O)C5CC5)ccc24)COC3=O)ccc1C(=O)O [Compound 8, 4-(6-(cyclopropanecarboxamido)-1-oxo-1,3-dihydrofuro[3,4-b]quinolin-9-yl)-2-((methyl(pentyl)amino)methyl)benzoic acid] | 8 (≈ 15.9 µM) | 8 (≈ 15.9 µM) | 16 (≈ 31.9 µM) | 550 | 16 (≈ 31.9 µM) | 16 (≈ 31.9 µM) | 4 (≈ 7.97 µM) | 8 (≈ 15.9 µM) | 8 (≈ 15.9 µM) | 16 (≈ 31.9 µM) | 16 (≈ 31.9 µM) |  |  |  |  |  |  |  |  |  |
| CN[C@H](CC(C)C)C(=O)N[C@H]1C(=O)N[C@@H](CC(N)=O)C(=O)N[C@H]2C(=O)N[C@H]3C(=O)N[C@H](C(=O)N[C@H](C(=O)O)c4cc(O)cc(O)c4-c4cc3ccc4O)[C@H](O)c3ccc(c(Cl)c3)Oc3cc2cc(c3O[C@@H]2O[C@H](CO)[C@@H](O)[C@H](O)[C@H]2O[C@H]2C[C@](C)(N)[C@H](O)[C@H](C)O2)Oc2ccc(cc2Cl)[C@H]1O [Vancomycin, reference compound] |  |  |  |  |  |  |  |  |  |  |  | 0.5 (≈ 0.345 µM) | > 128 | > 128 | 1 (≈ 0.69 µM) | 1 (≈ 0.69 µM) | 0.5 (≈ 0.345 µM) | > 128 | 1 (≈ 0.69 µM) | > 128 |
